These results are taken from ChEMBL document CHEMBL3351815, “Synthesis of fluorinated agonist of sphingosine-1-phosphate receptor 1” (Bioorg Med Chem, 2014).

Activity calls are given as the source filed them. The calls are words filed in the database; no cut-off is given here.

Experiment [1] addresses Sphingosine 1-phosphate receptor 1 (Homo sapiens) (UniProt P21453). The experiment in a line: Agonist activity at S1P receptor in human PC3 cells assessed as increase in proliferation at 100 nM after 24 hrs by [3H]-thymidine incorporation assay. Type of experiment: cell-based. To be noted: PC-3. (Dividing cells build labelled thymidine or BrdU into new DNA.)
The target is the same in experiment [2]. Nature of the experiment: Agonist activity at S1P receptor in human C4-2B cells assessed as increase in proliferation at 100 nM after 24 hrs by [3H]-thymidine incorporation assay. Type of experiment: cell-based.
Experiment [3] is described as follows: Antiproliferative activity against human C4-2B cells assessed as reduction in proliferation after 24 hrs by [3H]-thymidine incorporation assay. Type of experiment: functional, cell-based. To be noted: LNCaP C4-2B.
A further experiment concerns PC-3. The experiment in a line: Antiproliferative activity against human PC3 cells assessed as reduction in proliferation at 1 to 10 uM after 24 hrs by MTT assay. Type of experiment: functional, cell-based. On the technique in general: Tetrazolium dyes change colour on reduction, which living cells bring about.
The test system of another experiment is LNCaP C4-2B. The experiment in a line: Antiproliferative activity against human C4-2B cells assessed as reduction in proliferation at 1 to 100 uM after 24 hrs by MTT assay. Type of experiment: functional, cell-based.
Experiment [4] can be described thus: Antiproliferative activity against human PC3 cells assessed as reduction in proliferation after 24 hrs by [3H]-thymidine incorporation assay. Type of experiment: functional, cell-based. To be noted: PC-3.

Chain of Sphingosine 1-phosphate receptor 1 (Homo sapiens) (P21453 whole entry): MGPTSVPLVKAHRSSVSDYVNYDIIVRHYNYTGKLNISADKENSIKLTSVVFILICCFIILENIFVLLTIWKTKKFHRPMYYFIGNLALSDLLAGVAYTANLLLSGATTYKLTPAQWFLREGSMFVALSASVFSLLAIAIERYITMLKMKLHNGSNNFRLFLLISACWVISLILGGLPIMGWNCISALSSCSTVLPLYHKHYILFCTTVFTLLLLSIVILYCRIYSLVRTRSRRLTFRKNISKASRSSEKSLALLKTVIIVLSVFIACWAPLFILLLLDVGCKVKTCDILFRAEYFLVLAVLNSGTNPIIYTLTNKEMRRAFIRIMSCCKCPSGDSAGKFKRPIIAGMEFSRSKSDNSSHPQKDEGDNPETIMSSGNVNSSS

Turning to `CCCCCCCCc1ccc(CCC(N)(CO)COP(=O)(O)O)cc1` (stereo not given), the result in experiment [1] and in experiment [2] was Active.

In the case of `CCCCCCCCCCCCC/C=C/[C@@H](O)[C@@H](N)COP(=O)(O)O`, the outcome in experiment [1] and in experiment [2] was Active.

As for `CCCCCCCCc1ccc(CCC(N)CC(F)(F)P(=O)(O)O)cc1` (stereo not given), the outcome in experiment [1] and in experiment [2] was inactive. Moreover, the IC50 (in general, the midpoint of a concentration-inhibition curve) in experiment [3] is 3 µM; in experiment [4], 20 µM. In addition, the inhibition entry with PC-3 and with LNCaP C4-2B was “Active” in each case.
